Test results reported in the supplement of paper PMC8882468.
± gives the standard deviation of the averaged measurements.

Each compound was assayed on HCI-005.E2 (organoid from a breast cancer xenograft with a HER2-positive history) (assay: CTG-3D luminescence at 96 h relative to day-0 seeding control (ratio to day 0); higher = more growth / less cytotoxicity; PDxO 3D drug screen, 96 h, CTG-3D normalised to day-0 seeding control.). Details: 625 fM.

Compound | CTG-3D luminescence at 96 h
CN(Cc1cnc2nc(N)nc(N)c2n1)c1ccc(C(=O)N[C@@H](CCC(=O)O)C(=O)O)cc1 [methotrexate] | 2.1 ± 0.39
C=CCn1c(=O)c2cnc(Nc3ccc(N4CCN(C)CC4)cc3)nc2n1-c1cccc(C(C)(C)O)n1 [adavosertib] | 1.73 ± 0.35
CC(C)(C(=O)NCC(F)(F)C(F)(F)F)C(=O)N[C@@H]1C(=O)Nc2ccccc2-c2ccccc21 | 1.54 ± 0.15
C[C@@H]1COCCN1c1cc(C2([S@](C)(=N)=O)CC2)nc(-c2cc[nH]c3nccc2-3)n1 [ceralasertib] | 1.78 ± 0.4
CCN1CCN(Cc2ccc(Nc3ncc(F)c(-c4cc(F)c5nc(C)n(C(C)C)c5c4)n3)nc2)CC1 [abemaciclib] | 2.12 ± 0.21

These compounds were tested on HCI-001 (organoid from a triple-negative breast cancer xenograft) in the same assay as above. Details: 12.5 pM; days in culture: 240.

Compound | CTG-3D luminescence at 96 h
COc1cccc2c1C(=O)c1c(O)c3c(c(O)c1C2=O)C[C@@](O)(C(=O)CO)C[C@@H]3O[C@H]1C[C@H](N)[C@H](O)[C@H](C)O1 [doxorubicin] | 1.83
O=C(O)C1(C(=O)O)CCC1.[NH2-].[NH2-].[Pt+2] [carboplatin] | 1.59
NC(=O)Nc1cc(-c2cccc(F)c2)sc1C(=O)N[C@H]1CCCNC1 [AZD7762] | 1.67
Nc1ccn([C@@H]2O[C@H](CO)[C@@H](O)C2(F)F)c(=O)n1 [gemcitabine] | 1.56
CC1(C)CCC(c2ccc(Cl)cc2)=C(CN2CCN(c3ccc(C(=O)NS(=O)(=O)c4ccc(N[C@H](CCN5CCOCC5)CSc5ccccc5)c(S(=O)(=O)C(F)(F)F)c4)cc3)CC2)C1 [navitoclax] | 1.51
CN(Cc1cnc2nc(N)nc(N)c2n1)c1ccc(C(=O)N[C@@H](CCC(=O)O)C(=O)O)cc1 [methotrexate] | 2.01
C=CCn1c(=O)c2cnc(Nc3ccc(N4CCN(C)CC4)cc3)nc2n1-c1cccc(C(C)(C)O)n1 [adavosertib] | 1.67
CC(C)(C(=O)NCC(F)(F)C(F)(F)F)C(=O)N[C@@H]1C(=O)Nc2ccccc2-c2ccccc21 | 1.46
C[C@@H]1COCCN1c1cc(C2([S@](C)(=N)=O)CC2)nc(-c2cc[nH]c3nccc2-3)n1 [ceralasertib] | 1.54
CCN1CCN(Cc2ccc(Nc3ncc(F)c(-c4cc(F)c5nc(C)n(C(C)C)c5c4)n3)nc2)CC1 [abemaciclib] | 1.34

Same assay, conditions: 12.5 pM; days in culture: 260

Compound | CTG-3D luminescence at 96 h
COc1cccc2c1C(=O)c1c(O)c3c(c(O)c1C2=O)C[C@@](O)(C(=O)CO)C[C@@H]3O[C@H]1C[C@H](N)[C@H](O)[C@H](C)O1 [doxorubicin] | 2.69
O=C(O)C1(C(=O)O)CCC1.[NH2-].[NH2-].[Pt+2] [carboplatin] | 1.71
NC(=O)Nc1cc(-c2cccc(F)c2)sc1C(=O)N[C@H]1CCCNC1 [AZD7762] | 1.93
Nc1ccn([C@@H]2O[C@H](CO)[C@@H](O)C2(F)F)c(=O)n1 [gemcitabine] | 2.47
CC1(C)CCC(c2ccc(Cl)cc2)=C(CN2CCN(c3ccc(C(=O)NS(=O)(=O)c4ccc(N[C@H](CCN5CCOCC5)CSc5ccccc5)c(S(=O)(=O)C(F)(F)F)c4)cc3)CC2)C1 [navitoclax] | 2.66
CN(Cc1cnc2nc(N)nc(N)c2n1)c1ccc(C(=O)N[C@@H](CCC(=O)O)C(=O)O)cc1 [methotrexate] | 2.08
C=CCn1c(=O)c2cnc(Nc3ccc(N4CCN(C)CC4)cc3)nc2n1-c1cccc(C(C)(C)O)n1 [adavosertib] | 1.62
CC(C)(C(=O)NCC(F)(F)C(F)(F)F)C(=O)N[C@@H]1C(=O)Nc2ccccc2-c2ccccc21 | 2.5
C[C@@H]1COCCN1c1cc(C2([S@](C)(=N)=O)CC2)nc(-c2cc[nH]c3nccc2-3)n1 [ceralasertib] | 1.68
CCN1CCN(Cc2ccc(Nc3ncc(F)c(-c4cc(F)c5nc(C)n(C(C)C)c5c4)n3)nc2)CC1 [abemaciclib] | 2.51

Same assay, conditions: 12.5 pM; days in culture: 269

Compound | CTG-3D luminescence at 96 h
COc1cccc2c1C(=O)c1c(O)c3c(c(O)c1C2=O)C[C@@](O)(C(=O)CO)C[C@@H]3O[C@H]1C[C@H](N)[C@H](O)[C@H](C)O1 [doxorubicin] | 1.42
O=C(O)C1(C(=O)O)CCC1.[NH2-].[NH2-].[Pt+2] [carboplatin] | 1.59
NC(=O)Nc1cc(-c2cccc(F)c2)sc1C(=O)N[C@H]1CCCNC1 [AZD7762] | 1.68
Nc1ccn([C@@H]2O[C@H](CO)[C@@H](O)C2(F)F)c(=O)n1 [gemcitabine] | 1.5
CC1(C)CCC(c2ccc(Cl)cc2)=C(CN2CCN(c3ccc(C(=O)NS(=O)(=O)c4ccc(N[C@H](CCN5CCOCC5)CSc5ccccc5)c(S(=O)(=O)C(F)(F)F)c4)cc3)CC2)C1 [navitoclax] | 1.8
CN(Cc1cnc2nc(N)nc(N)c2n1)c1ccc(C(=O)N[C@@H](CCC(=O)O)C(=O)O)cc1 [methotrexate] | 1.68
C=CCn1c(=O)c2cnc(Nc3ccc(N4CCN(C)CC4)cc3)nc2n1-c1cccc(C(C)(C)O)n1 [adavosertib] | 1.43
CC(C)(C(=O)NCC(F)(F)C(F)(F)F)C(=O)N[C@@H]1C(=O)Nc2ccccc2-c2ccccc21 | 1.46
C[C@@H]1COCCN1c1cc(C2([S@](C)(=N)=O)CC2)nc(-c2cc[nH]c3nccc2-3)n1 [ceralasertib] | 1.61
CCN1CCN(Cc2ccc(Nc3ncc(F)c(-c4cc(F)c5nc(C)n(C(C)C)c5c4)n3)nc2)CC1 [abemaciclib] | 1.53

Same assay, conditions: 12.5 pM; days in culture: 327

Compound | CTG-3D luminescence at 96 h
COc1cccc2c1C(=O)c1c(O)c3c(c(O)c1C2=O)C[C@@](O)(C(=O)CO)C[C@@H]3O[C@H]1C[C@H](N)[C@H](O)[C@H](C)O1 [doxorubicin] | 1.28
O=C(O)C1(C(=O)O)CCC1.[NH2-].[NH2-].[Pt+2] [carboplatin] | 1.5
NC(=O)Nc1cc(-c2cccc(F)c2)sc1C(=O)N[C@H]1CCCNC1 [AZD7762] | 1.38
Nc1ccn([C@@H]2O[C@H](CO)[C@@H](O)C2(F)F)c(=O)n1 [gemcitabine] | 1.48
CC1(C)CCC(c2ccc(Cl)cc2)=C(CN2CCN(c3ccc(C(=O)NS(=O)(=O)c4ccc(N[C@H](CCN5CCOCC5)CSc5ccccc5)c(S(=O)(=O)C(F)(F)F)c4)cc3)CC2)C1 [navitoclax] | 2.11
CN(Cc1cnc2nc(N)nc(N)c2n1)c1ccc(C(=O)N[C@@H](CCC(=O)O)C(=O)O)cc1 [methotrexate] | 1.75
C=CCn1c(=O)c2cnc(Nc3ccc(N4CCN(C)CC4)cc3)nc2n1-c1cccc(C(C)(C)O)n1 [adavosertib] | 1.54
CC(C)(C(=O)NCC(F)(F)C(F)(F)F)C(=O)N[C@@H]1C(=O)Nc2ccccc2-c2ccccc21 | 1.38
C[C@@H]1COCCN1c1cc(C2([S@](C)(=N)=O)CC2)nc(-c2cc[nH]c3nccc2-3)n1 [ceralasertib] | 1.41
CCN1CCN(Cc2ccc(Nc3ncc(F)c(-c4cc(F)c5nc(C)n(C(C)C)c5c4)n3)nc2)CC1 [abemaciclib] | 1.46

Same assay, conditions: 12.5 pM; days in culture: 346

Compound | CTG-3D luminescence at 96 h
COc1cccc2c1C(=O)c1c(O)c3c(c(O)c1C2=O)C[C@@](O)(C(=O)CO)C[C@@H]3O[C@H]1C[C@H](N)[C@H](O)[C@H](C)O1 [doxorubicin] | 1.4
O=C(O)C1(C(=O)O)CCC1.[NH2-].[NH2-].[Pt+2] [carboplatin] | 1.42
NC(=O)Nc1cc(-c2cccc(F)c2)sc1C(=O)N[C@H]1CCCNC1 [AZD7762] | 1.38
Nc1ccn([C@@H]2O[C@H](CO)[C@@H](O)C2(F)F)c(=O)n1 [gemcitabine] | 1.31
CC1(C)CCC(c2ccc(Cl)cc2)=C(CN2CCN(c3ccc(C(=O)NS(=O)(=O)c4ccc(N[C@H](CCN5CCOCC5)CSc5ccccc5)c(S(=O)(=O)C(F)(F)F)c4)cc3)CC2)C1 [navitoclax] | 1.64
CN(Cc1cnc2nc(N)nc(N)c2n1)c1ccc(C(=O)N[C@@H](CCC(=O)O)C(=O)O)cc1 [methotrexate] | 1.53
C=CCn1c(=O)c2cnc(Nc3ccc(N4CCN(C)CC4)cc3)nc2n1-c1cccc(C(C)(C)O)n1 [adavosertib] | 1.44
CC(C)(C(=O)NCC(F)(F)C(F)(F)F)C(=O)N[C@@H]1C(=O)Nc2ccccc2-c2ccccc21 | 1.54
C[C@@H]1COCCN1c1cc(C2([S@](C)(=N)=O)CC2)nc(-c2cc[nH]c3nccc2-3)n1 [ceralasertib] | 1.56
CCN1CCN(Cc2ccc(Nc3ncc(F)c(-c4cc(F)c5nc(C)n(C(C)C)c5c4)n3)nc2)CC1 [abemaciclib] | 1.39

Same assay, conditions: 12.5 pM; days in culture: 364

Compound | CTG-3D luminescence at 96 h
COc1cccc2c1C(=O)c1c(O)c3c(c(O)c1C2=O)C[C@@](O)(C(=O)CO)C[C@@H]3O[C@H]1C[C@H](N)[C@H](O)[C@H](C)O1 [doxorubicin] | 1.33
O=C(O)C1(C(=O)O)CCC1.[NH2-].[NH2-].[Pt+2] [carboplatin] | 1.45
NC(=O)Nc1cc(-c2cccc(F)c2)sc1C(=O)N[C@H]1CCCNC1 [AZD7762] | 1.53
Nc1ccn([C@@H]2O[C@H](CO)[C@@H](O)C2(F)F)c(=O)n1 [gemcitabine] | 1.41
CC1(C)CCC(c2ccc(Cl)cc2)=C(CN2CCN(c3ccc(C(=O)NS(=O)(=O)c4ccc(N[C@H](CCN5CCOCC5)CSc5ccccc5)c(S(=O)(=O)C(F)(F)F)c4)cc3)CC2)C1 [navitoclax] | 1.67
CN(Cc1cnc2nc(N)nc(N)c2n1)c1ccc(C(=O)N[C@@H](CCC(=O)O)C(=O)O)cc1 [methotrexate] | 1.58
C=CCn1c(=O)c2cnc(Nc3ccc(N4CCN(C)CC4)cc3)nc2n1-c1cccc(C(C)(C)O)n1 [adavosertib] | 1.41
CC(C)(C(=O)NCC(F)(F)C(F)(F)F)C(=O)N[C@@H]1C(=O)Nc2ccccc2-c2ccccc21 | 1.49
C[C@@H]1COCCN1c1cc(C2([S@](C)(=N)=O)CC2)nc(-c2cc[nH]c3nccc2-3)n1 [ceralasertib] | 1.44
CCN1CCN(Cc2ccc(Nc3ncc(F)c(-c4cc(F)c5nc(C)n(C(C)C)c5c4)n3)nc2)CC1 [abemaciclib] | 1.39

Same assay, conditions: 0.00025 µM; days in culture: 240

Compound | CTG-3D luminescence at 96 h
COc1cccc2c1C(=O)c1c(O)c3c(c(O)c1C2=O)C[C@@](O)(C(=O)CO)C[C@@H]3O[C@H]1C[C@H](N)[C@H](O)[C@H](C)O1 [doxorubicin] | 0.976
O=C(O)C1(C(=O)O)CCC1.[NH2-].[NH2-].[Pt+2] [carboplatin] | 1.15
NC(=O)Nc1cc(-c2cccc(F)c2)sc1C(=O)N[C@H]1CCCNC1 [AZD7762] | 0.879
Nc1ccn([C@@H]2O[C@H](CO)[C@@H](O)C2(F)F)c(=O)n1 [gemcitabine] | 1.26
CC1(C)CCC(c2ccc(Cl)cc2)=C(CN2CCN(c3ccc(C(=O)NS(=O)(=O)c4ccc(N[C@H](CCN5CCOCC5)CSc5ccccc5)c(S(=O)(=O)C(F)(F)F)c4)cc3)CC2)C1 [navitoclax] | 1.07
CN(Cc1cnc2nc(N)nc(N)c2n1)c1ccc(C(=O)N[C@@H](CCC(=O)O)C(=O)O)cc1 [methotrexate] | 1.12
C=CCn1c(=O)c2cnc(Nc3ccc(N4CCN(C)CC4)cc3)nc2n1-c1cccc(C(C)(C)O)n1 [adavosertib] | 0.913
CC(C)(C(=O)NCC(F)(F)C(F)(F)F)C(=O)N[C@@H]1C(=O)Nc2ccccc2-c2ccccc21 | 1.17
C[C@@H]1COCCN1c1cc(C2([S@](C)(=N)=O)CC2)nc(-c2cc[nH]c3nccc2-3)n1 [ceralasertib] | 0.962
CCN1CCN(Cc2ccc(Nc3ncc(F)c(-c4cc(F)c5nc(C)n(C(C)C)c5c4)n3)nc2)CC1 [abemaciclib] | 0.584
